# Assay results reported in article PMC6976569, “Structural basis of subtype-selective competitive antagonism for GluN2C/2D-containing NMDA receptors” (Nature Communications, 2020).
# Several values for one entry are separate records, joined by “and”; a condition that tells them apart may be missing. Equal values may be shown once. Read-outs that look alike come from different tables or passages of the source.
# Experiments:
# [1] = test system: GluN2A-Lys738Met; design: method as in PMID 24462099; conditions: cited from earlier work
# [2] = molecular target: GluN2A-containing receptors; conditions: cited from earlier work
# [3] = test system: GluN2C/2D-containing NMDARs; conditions: cited from earlier work; for GluN2C/2D preference over GluN2A/2B: allosteric inhibitors
# [4] = test system: GluN1/GluN2B/GluN2D triheteromers; design: method as in Brothwell et al., 2008; Suárez et al., 2010; conditions: substantia nigra pars compacta; ref Brothwell et al., 2008; Suárez et al., 2010; cited from earlier work
# [5] = test system: GluN1/GluN2B/GluN2D triheteromers; design: method as in Volianskis et al., 2013; conditions: hippocampus, at concentrations selective for GluN2D; ref Volianskis et al., 2013; cited from earlier work
# [6] = test system: tPA-promoted neurotoxicity; design: method as in Jullienne et al, 2011; conditions: given i.v.; only active where the blood brain barrier was compromised; ref Jullienne et al, 2011; cited from earlier work
# [7] = molecular target: GluA2; design: method as in PMID 24462099; conditions: cited from earlier work
# [8] = test system: GluN2D-containing receptors; conditions: cited from earlier work
# [9] = molecular target: GluK1; design: method as in PMID 24462099; conditions: cited from earlier work
# [10] = molecular target: GluN2C-containing receptors; conditions: cited from earlier work
# [11] = molecular target: GluN2B-containing receptors; design: method as in earlier work; conditions: TEVC; ref 1-3 (supplementary references); cited from earlier work
# [12] = molecular target: T1, GluN1-4a/GluN2D NMDARs (Rattus norvegicus, UniProt P35439+Q62645); assay: TEVC electrophysiology on Xenopus laevis oocytes expressing GluN1-4a/GluN2D; type: cell-based
# T1 construct: expressed in transfected cells; host or cells: Xenopus laevis oocytes injected with cRNA
# T1 sequence (Q62645 28-1323, other chains not shown): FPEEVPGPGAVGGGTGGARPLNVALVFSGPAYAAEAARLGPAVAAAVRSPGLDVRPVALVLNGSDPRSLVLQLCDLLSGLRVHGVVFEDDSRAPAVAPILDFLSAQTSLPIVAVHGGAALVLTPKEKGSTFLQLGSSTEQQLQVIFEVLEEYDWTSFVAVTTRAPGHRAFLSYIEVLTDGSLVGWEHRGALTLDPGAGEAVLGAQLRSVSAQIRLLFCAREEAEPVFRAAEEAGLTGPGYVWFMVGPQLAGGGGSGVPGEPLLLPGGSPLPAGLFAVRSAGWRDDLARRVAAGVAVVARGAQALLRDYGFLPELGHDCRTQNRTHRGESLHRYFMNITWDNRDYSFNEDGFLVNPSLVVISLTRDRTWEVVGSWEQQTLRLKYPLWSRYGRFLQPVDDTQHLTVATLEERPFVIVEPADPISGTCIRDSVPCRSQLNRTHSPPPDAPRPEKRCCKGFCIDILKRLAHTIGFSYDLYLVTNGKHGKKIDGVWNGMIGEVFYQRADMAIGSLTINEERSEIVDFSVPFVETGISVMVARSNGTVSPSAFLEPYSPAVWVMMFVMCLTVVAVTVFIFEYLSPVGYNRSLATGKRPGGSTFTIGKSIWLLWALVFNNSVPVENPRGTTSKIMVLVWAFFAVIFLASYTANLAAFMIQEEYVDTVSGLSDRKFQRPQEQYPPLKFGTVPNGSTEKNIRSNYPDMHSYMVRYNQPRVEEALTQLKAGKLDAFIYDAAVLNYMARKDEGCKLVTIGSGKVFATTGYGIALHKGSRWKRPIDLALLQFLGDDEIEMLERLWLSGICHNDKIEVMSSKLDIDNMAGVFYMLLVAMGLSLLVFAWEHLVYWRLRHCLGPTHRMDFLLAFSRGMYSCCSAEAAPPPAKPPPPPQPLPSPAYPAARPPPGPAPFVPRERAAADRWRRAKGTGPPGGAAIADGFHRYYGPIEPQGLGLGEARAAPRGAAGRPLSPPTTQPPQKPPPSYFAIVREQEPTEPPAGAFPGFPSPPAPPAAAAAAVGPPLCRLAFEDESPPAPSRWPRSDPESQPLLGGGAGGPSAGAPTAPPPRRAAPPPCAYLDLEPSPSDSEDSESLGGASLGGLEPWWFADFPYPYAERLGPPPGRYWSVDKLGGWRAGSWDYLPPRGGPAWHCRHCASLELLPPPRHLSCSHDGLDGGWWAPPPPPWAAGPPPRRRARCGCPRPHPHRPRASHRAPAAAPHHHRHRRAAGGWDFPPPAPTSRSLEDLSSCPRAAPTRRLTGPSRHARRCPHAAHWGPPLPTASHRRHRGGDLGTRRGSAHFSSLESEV
# From the text: (§1) The chemical definition of UBP791 used in this study is a cis-racemic mixture of (2S,3R)- and (2R,3S)-isomers.
# (§2) Plasmids (pSP or pCI_NEO) harboring rat GluN1 or GluN2 full-length subunits were linearized by restriction digestion and transcribed according to the manufacturer’s instructions (mMESSAGE mMachine SP6 or T7 kit, ThermoFisher Scientific). Recombinant rat GluN1-4a and GluN2 were expressed by co-injecting cRNA at a 1:2 (w/w) ratio into defolliculated X. laevis oocytes (amounts varied from 0.05–25 ng per oocyte). Two-electrode voltage-clamp recordings were performed 1–3 days after injection using agarose-tipped microelectrodes (0.4–1.2 MΩ) filled with 3 M KCl at a holding potential of −60 mV. The bath solution contained 5 mM HEPES, 100 mM NaCl, 0.3 mM BaCl2, 10 mM Tricine, at pH 7.4 (adjusted with KOH). […] For the statistical evaluation, we implemented pairwise F-tests to test variances, and then performed the Student t test with equal or unequal variances as determined previously, and accounted for multiple testing with the Bonferroni correction.
# [13] = molecular target: T2, GluN1-4a/GluN2D Met763Lys/Lys766Arg NMDARs (Rattus norvegicus, UniProt P35439+Q62645, K766R/M763K); assay: TEVC electrophysiology on oocytes expressing GluN1-4a/GluN2D Met763Lys/Lys766Arg; type: cell-based
# T2 construct: expressed in transfected cells; host or cells: Xenopus laevis oocytes injected with cRNA
# T2 sequence (Q62645 28-1323 M763K/K766R, other chains not shown): as the sequence (Q62645 28-1323, other chains not shown) above, with M736K, K739R counted along it
# From the text: (§3) To test the validity of the structural observation for the critical involvement of the methionine/lysine residue combination (GluN2D-Met763/Lys766, and GluN2A-4m-Met738/Lys741) in preferential binding of UBP791 to GluN2D over GluN2A, we conducted site-directed mutagenesis and assessed inhibition potencies of the mutant channels by TEVC. Specifically, we converted the GluN2D residues to the equivalent ones in the GluN2A subunit and measured macroscopic currents of the GluN1-4a/GluN2D mutant NMDARs.
# as §2
# [14] = molecular target: T3, GluN1-4a/GluN2D Met763Lys NMDARs (Rattus norvegicus, UniProt P35439+Q62645, M763K); assay: TEVC electrophysiology on oocytes expressing GluN1-4a/GluN2D Met763Lys; type: cell-based
# T3 construct: expressed in transfected cells; host or cells: Xenopus laevis oocytes injected with cRNA
# T3 sequence (Q62645 28-1323 M763K, other chains not shown): as the sequence (Q62645 28-1323, other chains not shown) above, with M736K counted along it
# From the text: as §3, §2
# [15] = molecular target: T4, GluN1-4a/GluN2D Lys766Arg NMDARs (Rattus norvegicus, UniProt P35439+Q62645, K766R); assay: TEVC electrophysiology on oocytes expressing GluN1-4a/GluN2D Lys766Arg; type: cell-based
# T4 construct: expressed in transfected cells; host or cells: Xenopus laevis oocytes injected with cRNA
# T4 sequence (Q62645 28-1323 K766R, other chains not shown): as the sequence (Q62645 28-1323, other chains not shown) above, with K739R counted along it
# From the text: as §3, §2
# [16] = test system: GluN2A/2C-triheteromers; design: method as in Swanger et al, 2017; conditions: oocyte-based system; ref Swanger et al, 2017; cited from earlier work
# [17] = test system: GluN2D; design: method as in Swanger et al., 2017; conditions: GluN2D expressed in mammalian cells; ref Swanger et al., 2017; cited from earlier work
# [18] = molecular target: T5, GluN1-4a/GluN2A NMDARs (Rattus norvegicus, UniProt P35439+Q00959); assay: TEVC electrophysiology on Xenopus laevis oocytes expressing GluN1-4a/GluN2A; type: cell-based; conditions: Cheng–Prusoff from IC50 and L-glutamate EC50; 100 μM glycine, 1 or 3 μM L-glutamate
# T5 construct: expressed in transfected cells; host or cells: Xenopus laevis oocytes injected with cRNA
# From the text: as §1, §2
# [19] = molecular target: T6, GluN1-4a/GluN2A NMDARs (Rattus norvegicus, UniProt Q00959); assay: as above; type: cell-based; conditions: Ki GluN2A relative to Ki GluN2D (WT)
# T6 construct: expressed in transfected cells; host or cells: Xenopus laevis oocytes injected with cRNA
# T6 sequence (Q00959 23-1464, other chains not shown): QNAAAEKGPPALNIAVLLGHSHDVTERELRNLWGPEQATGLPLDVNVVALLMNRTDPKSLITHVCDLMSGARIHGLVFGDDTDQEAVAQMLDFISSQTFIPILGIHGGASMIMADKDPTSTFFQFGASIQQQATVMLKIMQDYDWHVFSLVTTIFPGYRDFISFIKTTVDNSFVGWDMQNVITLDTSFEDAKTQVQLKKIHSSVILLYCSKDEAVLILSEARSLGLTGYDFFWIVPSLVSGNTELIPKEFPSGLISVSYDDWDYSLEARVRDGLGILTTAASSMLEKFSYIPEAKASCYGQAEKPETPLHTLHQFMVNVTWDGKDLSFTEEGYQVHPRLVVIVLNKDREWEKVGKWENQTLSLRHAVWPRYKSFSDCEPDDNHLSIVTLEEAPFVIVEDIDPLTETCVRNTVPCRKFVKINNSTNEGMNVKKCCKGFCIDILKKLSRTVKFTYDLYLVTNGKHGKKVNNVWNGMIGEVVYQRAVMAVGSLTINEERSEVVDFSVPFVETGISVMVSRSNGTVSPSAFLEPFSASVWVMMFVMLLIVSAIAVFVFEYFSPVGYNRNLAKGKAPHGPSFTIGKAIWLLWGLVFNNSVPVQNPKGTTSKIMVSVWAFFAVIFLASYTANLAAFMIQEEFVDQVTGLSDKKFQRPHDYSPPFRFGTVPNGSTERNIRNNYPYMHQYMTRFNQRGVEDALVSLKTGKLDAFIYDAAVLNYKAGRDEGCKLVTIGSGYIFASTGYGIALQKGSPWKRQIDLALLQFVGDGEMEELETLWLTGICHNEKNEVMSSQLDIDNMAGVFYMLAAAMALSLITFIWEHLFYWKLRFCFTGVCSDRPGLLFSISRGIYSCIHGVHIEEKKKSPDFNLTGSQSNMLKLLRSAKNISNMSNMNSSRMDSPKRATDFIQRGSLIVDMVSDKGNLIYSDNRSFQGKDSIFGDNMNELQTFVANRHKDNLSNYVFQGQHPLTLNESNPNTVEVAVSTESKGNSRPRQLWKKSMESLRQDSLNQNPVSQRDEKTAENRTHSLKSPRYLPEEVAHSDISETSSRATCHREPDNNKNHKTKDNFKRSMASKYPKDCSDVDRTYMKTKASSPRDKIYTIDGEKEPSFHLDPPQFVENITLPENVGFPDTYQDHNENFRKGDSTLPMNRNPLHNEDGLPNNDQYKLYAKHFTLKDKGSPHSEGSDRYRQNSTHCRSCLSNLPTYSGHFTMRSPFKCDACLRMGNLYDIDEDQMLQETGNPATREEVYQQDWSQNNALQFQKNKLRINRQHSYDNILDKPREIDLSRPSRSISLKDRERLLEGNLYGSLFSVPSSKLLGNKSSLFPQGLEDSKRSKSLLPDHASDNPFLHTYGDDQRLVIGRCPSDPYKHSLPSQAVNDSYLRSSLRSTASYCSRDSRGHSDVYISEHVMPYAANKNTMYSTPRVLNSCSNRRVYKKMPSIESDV
# From the text: as §1, §2
# [20] = molecular target: GluA1 (Homo sapiens, UniProt P42261); assay: Glutamate-stimulated Ca2+-influx fluorescence assay in HEK293 cells, GluA1; type: cell-based; conditions: for IC50: HEK293 cells, glutamate-stimulated Ca2+-influx
# GluA1, sequence (P42261 19-906): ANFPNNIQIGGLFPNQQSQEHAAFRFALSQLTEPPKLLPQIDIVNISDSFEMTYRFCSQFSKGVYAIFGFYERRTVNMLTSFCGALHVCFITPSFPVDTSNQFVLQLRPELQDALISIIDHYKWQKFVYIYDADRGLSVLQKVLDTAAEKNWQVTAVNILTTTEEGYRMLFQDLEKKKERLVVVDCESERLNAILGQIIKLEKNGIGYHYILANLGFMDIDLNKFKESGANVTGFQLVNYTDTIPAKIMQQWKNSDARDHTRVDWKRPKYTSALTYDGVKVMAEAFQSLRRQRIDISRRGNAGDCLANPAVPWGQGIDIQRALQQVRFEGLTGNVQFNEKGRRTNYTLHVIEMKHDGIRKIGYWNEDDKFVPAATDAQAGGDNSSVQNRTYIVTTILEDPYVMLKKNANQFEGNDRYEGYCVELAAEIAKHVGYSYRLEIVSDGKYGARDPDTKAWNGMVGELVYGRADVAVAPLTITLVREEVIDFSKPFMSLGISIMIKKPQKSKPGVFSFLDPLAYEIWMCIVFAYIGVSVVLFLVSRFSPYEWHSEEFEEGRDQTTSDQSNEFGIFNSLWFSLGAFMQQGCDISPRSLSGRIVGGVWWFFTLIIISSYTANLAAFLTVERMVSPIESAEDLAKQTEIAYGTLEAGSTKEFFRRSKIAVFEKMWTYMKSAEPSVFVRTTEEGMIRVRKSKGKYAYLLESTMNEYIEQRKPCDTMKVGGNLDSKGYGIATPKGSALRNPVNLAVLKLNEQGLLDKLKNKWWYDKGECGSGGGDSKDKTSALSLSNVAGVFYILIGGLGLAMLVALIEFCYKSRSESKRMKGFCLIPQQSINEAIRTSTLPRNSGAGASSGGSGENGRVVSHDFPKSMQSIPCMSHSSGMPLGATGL
# Experimental: (§4) HEK293 cell lines stably expressing homomeric glutamate receptors (GluA1, GluK1 and GluK2) were obtained from Eli Lilly and grown in DMEM (ThermoFisher) supplemented with 10% v/v fetal bovine serum (Sigma), 2 mM Glutamax™ (Gibco), 100 U/mL penicillin, 100 µg streptomycin and 250 ng amphotericin B (Sigma) in 5% CO2 at 37 °C. Cells were passaged using TrypLE (Gibco) as required before confluency and periodically treated with selection antibiotics (GluK1, GluK2 hygromycin B, 200 µg/mL; GluA1 geneticin™, 200 µg/mL).
# (§5) Calcium influx fluorescence assay
# (§6) 100k cells/well were seeded into a 96-well plate precoated with poly-L-lysine and incubated for 12-16 hours until fully confluent. The cell monolayer was washed twice with 100 µL Hanks Balanced Salt Solution supplemented with 5 mM CaCl2 and 20 mM HEPES (sHBSS), then incubated for 2-4 hours with 100 µL working solution of Ca6 dye (Molecular Devices) supplemented with a desensitization blocker (GluK1, GluK2 0.25 mg/mL concanavalin A, Sigma; GluA1 100 µM cyclothiazide, Sigma). The time resolved fluorescence was recorded in a Flexstation 3 instrument (Molecular Devices). For each individual reading, the initial fluorescence of the well was measured for 20 seconds, after which the desired concentration of […]
# (§7) response is measured as the peak change in fluorescence upon addition of agonist. The viability of the cells was confirmed by determination of the concentration-response curve to the L-glutamate agonist and a standard antagonist for each plate. Readings of antagonists used the […]
# (§8) Fluorescence traces were performed in […]
# (§9) triplicate on each plate and Ki values were determined on a plate-by-plate basis. Separate experiments (n) were performed on different passages of cells. […]
# [21] = molecular target: GluK2 (Homo sapiens, UniProt Q13002); assay: Glutamate-stimulated Ca2+-influx fluorescence assay in HEK293 cells, GluK2; type: cell-based; conditions: for IC50: HEK293 cells, glutamate-stimulated Ca2+-influx
# GluK2, sequence (Q13002 32-908): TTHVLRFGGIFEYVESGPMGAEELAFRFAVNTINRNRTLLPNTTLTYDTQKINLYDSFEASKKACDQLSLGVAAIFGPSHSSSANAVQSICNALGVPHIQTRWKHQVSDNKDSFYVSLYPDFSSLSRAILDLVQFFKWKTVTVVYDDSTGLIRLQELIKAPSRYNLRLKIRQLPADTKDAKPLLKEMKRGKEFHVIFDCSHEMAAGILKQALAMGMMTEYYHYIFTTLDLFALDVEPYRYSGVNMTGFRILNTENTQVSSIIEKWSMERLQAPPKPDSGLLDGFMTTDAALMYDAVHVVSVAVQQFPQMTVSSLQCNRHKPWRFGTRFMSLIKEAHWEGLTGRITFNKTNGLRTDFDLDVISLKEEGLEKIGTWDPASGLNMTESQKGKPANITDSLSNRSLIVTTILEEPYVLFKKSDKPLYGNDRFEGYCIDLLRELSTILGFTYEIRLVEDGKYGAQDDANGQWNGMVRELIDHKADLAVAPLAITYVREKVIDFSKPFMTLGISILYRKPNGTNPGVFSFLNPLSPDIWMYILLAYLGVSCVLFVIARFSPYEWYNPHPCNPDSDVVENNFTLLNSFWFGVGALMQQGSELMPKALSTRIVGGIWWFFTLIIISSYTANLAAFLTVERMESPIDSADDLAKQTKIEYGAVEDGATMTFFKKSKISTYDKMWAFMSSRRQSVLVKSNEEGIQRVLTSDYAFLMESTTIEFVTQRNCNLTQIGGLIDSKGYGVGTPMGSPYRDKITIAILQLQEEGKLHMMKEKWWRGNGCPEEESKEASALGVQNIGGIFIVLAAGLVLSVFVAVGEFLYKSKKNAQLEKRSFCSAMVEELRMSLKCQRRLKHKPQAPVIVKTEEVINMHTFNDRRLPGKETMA
# Experimental: as §4, §5, §6, §7, §8, §9
# [22] = TEVC, ref 1-3 (supplementary references)
# [23] = normalized response at 30 µM compound
# [24] = normalized response at 100 µM compound
compound,measurement,setting,value
"O=C(O)[C@@H]1[C@H](C(=O)O)NCCN1C(=O)c1ccc2c(ccc3ccccc32)c1 (relative stereo) [PPDA, (2S*,3R*)-1-(phenanthrene-2-carbonyl)piperazine-2,3-dicarboxylic acid]",increase of potency compared with the WT GluN2A,[1],fivefold
same,Ki,"[2]; GluN2A, PPDA values ref 27",~0.5 µM
"O=C(O)[C@H]1NCCN(C(=O)c2ccc3ccc4ccccc4c3c2)[C@H]1C(=O)O (relative stereo) [UBP141, (2R*,3S*)-1-(phenanthrene-3-carbonyl)piperazine-2,3-dicarboxylic acid]",GluN2C/2D selectivity,[3],up to approximately tenfold
same,inhibition of triheteromers,[4],inhibits
"O=C(O)[C@H]1NCCN(C(=O)c2ccc3cc(Br)c4ccccc4c3c2)[C@H]1C(=O)O (relative stereo) [UBP145, (2R*,3S*)-1-(9-bromophenanthrene-3-carbonyl)piperazine-2,3-dicarboxylic acid]",block of triheteromers,[5],blocks
same,GluN2C/2D selectivity,[3],up to approximately tenfold
same,effect on tPA neurotoxicity,[6],blocked neurotoxicity of co-applied tissue plasminogen activator (tPA)
"O=C(O)C1NCCN(C(=O)c2ccc3c(ccc4ccccc43)c2)C1C(=O)O [(2S,3R)-PPDA]",Ki,[7],7.85 µM
same,fold higher potency compared to the (+)-isomer,"[8]; GluN2D-containing NMDARs, ref Jespersen et al, 2014",7 fold
same,fold higher potency compared to the (+)-isomer,"[3]; GluN2C and GluN2D-containing NMDARs, ref Irvine et al, 2012",~ 50 fold
same,"potency of (2S,3R)-PPDA compared with (2R,3S)-PPDA",[3],approximately tenfold higher potency
same,fold higher potency than the racemate,"[3]; on GluN2C and GluN2D, ref 29 (Irvine et al., 2012)",about 1.4 fold
same,Ki,[9],1.17 µM
Cc1ccc2[nH]c(=O)c(C3=NN(C(=O)CCC(=O)O)C(c4ccc(Br)cc4)C3)c(-c3ccccc3)c2c1 (centres unmarked) [DQP-1105],GluN2C/2D preference over GluN2A/2B,[3],~ 50 fold
"O=C(O)Cc1cccnc1C(=O)O [HQA, homoquinolinic acid]",EC50,[8]; [22],30 to 90 µM
same,EC50,[10]; [22],30 to 90 µM
same,EC50,[11],10 to 20 µM
same,EC50,[2]; [22],10 to 20 µM
"N[C@@H](CCC(=O)O)C(=O)O [L-glutamate, reference compound]",EC50,[12],0.17 ± 0.01 µM
same,EC50,[13],0.17 ± 0.02 µM
same,EC50,[14],0.27 ± 0.02 µM
same,EC50,[15],0.13 ± 0.02 µM
CCN(CC)C(=O)Oc1ccc(C(=O)Nc2cccc3cc[nH]c23)cc1 [NAB-14],IC50,"[8]; GluN2D expressed in Xenopus oocytes, ref Swanger et al., 2017",2.2 µM
same,GluN2C/2D preference over GluN2A/2B,[3],about 800 fold
same,selectivity for recombinant GluN2C/GluN2D over GluN2A/GluN2B,"[3]; reviewer's statement in peer review file, ref Swanger A. et al (2007)",> 800 fold
same,IC50,"[10]; GluN2C-diheteromers, oocyte-based system, ref Swanger et al, 2017",5 µM
same,IC50,[16],~15 µM
same,IC50,[17],0.58 µM and 0.584 µM
COc1ccc2nc(/C=C/c3cccc([N+](=O)[O-])c3)n(-c3ccc(C(=O)O)cc3)c(=O)c2c1 [QNZ46],GluN2C/2D preference over GluN2A/2B,[3],~ 50 fold
CC(Cc1ccc2c(ccc3cc(C(=O)N4CCN[C@H](C(=O)O)[C@@H]4C(=O)O)ccc32)c1)C(=O)O (some centres unmarked) [UBP1701],Ki,"[12]; Ki, Cheng–Prusoff from IC50 and L-glutamate EC50, 100 μM glycine, 1 or 3 μM L-glutamate",0.1 ± 0.01 µM
same,Ki,[18],4.49 ± 0.46 µM
same,fold difference of Ki vs. 2D (GluN2A),[19],~ 45 fold
same,IC50,[20],> 100 µM
same,Mean Response,[20]; [23],92.5%
same,Mean Response,[20]; [24],91.6%
same,IC50,[21],> 100 µM
same,Mean Response,[21]; [23],96.9%
same,Mean Response,[21]; [24],96.1%
O=C(O)CCCCc1ccc2c(ccc3cc(C(=O)N4CCNC(C(=O)O)C4C(=O)O)ccc32)c1 (centres unmarked) [UBP1702],Ki,[12]; read-out: Ki,0.13 ± 0.01 µM
same,Ki,[18],6.75 ± 0.75 µM
same,fold difference of Ki vs. 2D (GluN2A),[19],~ 52 fold
same,IC50,[20],> 100 µM
same,Mean Response,[20]; [23],86.5%
same,Mean Response,[20]; [24],97.4%
same,IC50,[21],> 100 µM
same,Mean Response,[21]; [23],94.5%
same,Mean Response,[21]; [24],96.0%
